What was measured:
[1] = biological target: T1, LptB (Escherichia coli, UniProt P0A9V1); test: Fbn-LptB binding assay (19F NMR linewidth); parameters: species or system E. coli
T1 construct: LptB-His (full-length LptB with a C-terminal His8 tag); His8 (C); made in house; host or cells: E. coli KRX (Promega)
Description: FIG. 12 is a graph showing the ^19F NMR linewidth of fluorobiocin (fbn) plotted vs. log[LptB]. Data were analyzed with GraphPad Prism 7 software using a nonlinear fit, log(agonist) vs. response with an R^2=0.9909.
We soaked novobiocin into LptB-ADP crystals and obtained a 2.0-Å structure of a co-complex (FIG. 7A, FIG. 11). ADP is still present in the co-complex, and novobiocin binds adjacent to the groove in LptB that accommodates the coupling helices from LptFG (FIG. 7B, FIG. 11). Coupling helices are a conserved motif in ABC systems that connect the transmembrane domains (here, LptFG) to the nucleotide-binding domains (here, LptB). […] This residue is invariant in LptB, and non-conservative substitutions at this position are lethal because they disrupt proper formation of the LptB2FG complex. Novobiocin thus binds a critical position at the LptBLptFG interface. To estimate the affinity of novobiocin for LptB, we synthesized an otherwise identical analogue in which a phenolic hydroxyl was substituted with a 19F-label (fluorobiocin, FIG. 8A).
5 mL of the buffered Fbn ligand solution was prepared by mixing 200 μL of 25X TBS pH 8.0, 125 μL 200 mM ADP pH 7.0, 125 μL 200 mM MgCl2, 4.43 μL of 56.5 mM Fbn, 4.55 mL of D20. Final [Tris-Cl]=50 mM, [NaCl]=150 mM, [ADP]=5 mM, [MgCl2]=5 mM, [Fbn]=50 μM. […]

[2] = test system: E. coli strain ATCC 25922; test: Neutropenic mouse thigh infection efficacy; format: in vivo; conditions: for Average log10 CFU/g of thigh: neutropenic CD-1 mice, 26 hours post infection
Description: Female CD-1 mice from Charles River Laboratories were allowed to acclimate for 5 days prior to start of study. Animals were housed four per cage with free access to food and water. Mice received two doses of cyclophosphamide on days −4 and −1 with 150 mg/kg and 100 mg/kg delivered IP, respectively. All procedures were performed to NeoSome IACUC policies and guidelines as well as OLAW standards.
E. coli strain ATCC 25922 was prepared for infection from an overnight plate culture. A portion of the plate was resuspended in sterile saline and adjusted to an OD of 0.15 at 625 nm. The adjusted bacterial suspension was further diluted to target an infecting inoculum of 1.5×10^5 CFU/mouse, the actual inoculum size for E. coli was 1.45×10^5 CFU/mouse. Plate counts of the inoculum was performed to confirm inoculum concentration.
Mice were inoculated with 100 μL of the prepared bacterial suspension via intramuscular injection into the right rear thigh.
Beginning at two hours post infection, mice were dosed with test agents subcutaneously at 10 mL/kg. A second dose of test agents was delivered at 6 hours post infection. For co-administered therapy, test agents were delivered separately at two different injection sites. Four animals were dosed per group. One group of four mice were euthanized at initiation of therapy (T=2 h) and CFUs determined. All remaining mice were euthanized at 26 hours post infection. At termination, thighs were aseptically excised, weighed, and homogenized to a uniform consistency in 2 mL of sterile saline. The homogenate was serially diluted and plated on bacterial growth media. The CFUs were enumerated after overnight incubation. The average and standard deviations for each group were determined.
Neutropenic mice infected with E. coli were treated with novobiocin, polymyxin B, or a combination of the two for the evaluation of efficacy is a thigh infection model.

[3] = test system: Klebsiella pneumoniae; test: Minimal inhibitory concentrations, checkerboard microdilution; format: cell-based; conditions: grown at 37° C. for 24 h
Description: (§1) Checkerboard microdilution assays between polymyxin B and novobiocin were performed in wild-type strains (unless otherwise noted) grown at 37° C. for 24 h. Checkerboard data (FIG. 1A-1F) are representative of at least three biological replicates. The following strains were tested: A) Wild-type Escherichia coli, ATCC 25922; B) Wild-type Enterobacter cloacae; ATCC 13047) Wild-type Klebsiella pneumoniae, ATCC 700721; D) Wild-type Pseudomonas aeruginosa, ATCC 15692 (PAO1); E) Wild-type Acinetobacter baumannii, ATCC 19606; F) novobiocin-resistant Acinetobacter baumannii, ATCC 19606 gyrB(R150C).

[4] = test system: Pseudomonas aeruginosa; test: as above; format: cell-based; conditions: grown at 37° C. for 24 h
Description: as §1

[5] = test system: Escherichia coli; test: as above; format: cell-based; conditions: grown at 37° C. for 24 h
Description: as §1

[6] = test system: Acinetobacter baumannii Novo^R; test: as above; format: cell-based; conditions: grown at 37° C. for 24 h
Description: as §1

[7] = test system: wild-type E. coli; test: Checkerboard microdilution assay between PMB and clorobiocin / novobiocin (FIG. 9F); format: cell-based; conditions: 37° C. for 24 h
[8] = biological target: T2, wild-type LptB2FGC complexes (Escherichia coli, UniProt P0A9V1); test: LPS-release assay, right-side-out vesicles to LptA*; format: biochemical, E. coli; conditions: overexpressed LptB2FGC vesicles, 30° C. for 1 hour (FIG. 9D, 9E)
T2 construct: made in house; host or cells: right-side-out membrane vesicles from E. coli BL-21(λDE3) overexpressing the complex
T2 sequence (P0AF98 whole entry): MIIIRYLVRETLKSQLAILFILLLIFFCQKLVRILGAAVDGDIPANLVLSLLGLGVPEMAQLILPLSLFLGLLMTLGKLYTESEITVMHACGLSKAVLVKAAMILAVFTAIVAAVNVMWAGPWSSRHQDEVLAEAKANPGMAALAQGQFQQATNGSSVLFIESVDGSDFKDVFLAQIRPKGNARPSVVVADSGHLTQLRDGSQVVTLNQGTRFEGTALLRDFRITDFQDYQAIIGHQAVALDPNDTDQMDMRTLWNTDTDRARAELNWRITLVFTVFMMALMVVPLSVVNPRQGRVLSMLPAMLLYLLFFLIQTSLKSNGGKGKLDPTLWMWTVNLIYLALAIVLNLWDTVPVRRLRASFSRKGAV
T2 sequence (P0ADV9 whole entry, further chain): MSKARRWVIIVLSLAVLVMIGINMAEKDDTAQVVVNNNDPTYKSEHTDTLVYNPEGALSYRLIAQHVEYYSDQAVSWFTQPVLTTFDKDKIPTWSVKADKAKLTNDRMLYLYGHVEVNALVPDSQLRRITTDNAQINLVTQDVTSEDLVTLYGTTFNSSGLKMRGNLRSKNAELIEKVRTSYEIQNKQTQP
T2 sequence (P0ADC6 whole entry, further chain): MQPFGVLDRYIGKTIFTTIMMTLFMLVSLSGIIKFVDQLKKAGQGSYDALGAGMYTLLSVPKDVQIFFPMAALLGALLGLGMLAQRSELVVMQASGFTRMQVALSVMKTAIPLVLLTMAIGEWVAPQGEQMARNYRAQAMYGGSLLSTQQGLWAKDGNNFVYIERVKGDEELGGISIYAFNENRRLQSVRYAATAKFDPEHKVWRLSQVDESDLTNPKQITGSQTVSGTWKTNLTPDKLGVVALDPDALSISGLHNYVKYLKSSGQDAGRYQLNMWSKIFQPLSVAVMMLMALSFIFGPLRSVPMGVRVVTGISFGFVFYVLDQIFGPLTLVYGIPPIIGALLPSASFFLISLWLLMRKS
T2 sequence (P0A9V1 2-241): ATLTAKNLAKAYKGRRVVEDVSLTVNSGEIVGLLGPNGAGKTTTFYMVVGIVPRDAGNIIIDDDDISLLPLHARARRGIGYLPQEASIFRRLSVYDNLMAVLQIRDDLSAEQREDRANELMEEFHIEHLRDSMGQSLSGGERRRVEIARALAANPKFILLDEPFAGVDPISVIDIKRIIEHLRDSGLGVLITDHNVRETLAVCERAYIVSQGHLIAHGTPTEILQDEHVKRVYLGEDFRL
Description: FIG. 9A is a schematic drawing showing the assay to monitor LPS release from right-side-out vesicles to LptA* (LptA(I36pBPA)). Vesicles containing overexpressed wild-type or mutant LptB2FGC complexes were incubated with LptA* and ATP at 30° C. to initiate LPS extraction and transport from the vesicles to LptA*. Samples were taken at different time points and UV-irradiated to crosslink LPS to LptA*, and accumulation of LPS-LptA* adducts was detected using LPS immunoblots.
FIG. 9D is a picture of an immunoblot showing that novobiocin and derivatives with impaired gyrase activities stimulate LPS transport in E. coli in vitro. […] Samples were UV irradiated at 365 nm for 5 minutes and then quenched with 2X SDS/5% β-mercaptoethanol. Samples were immunoblotted.
The assay detects via immunoblot LPS that becomes crosslinked to LptA* in the presence of UV light. […] By comparison, vesicles containing LptB2LptFG(ch)C complexes released less LPS over time (FIG. 9B, lanes 5-8). These experiments provide direct evidence that the amino acid changes in LptFG(ch), which were known to affect complex formation with LptB, impair LPS release. […] These compounds also increase LPS release from vesicles containing wild-type LptB2FGC complexes or LptB(R91 S)2FGC complexes (FIG. 17).
Samples were UV irradiated at 365 nm for 5 minutes and then quenched with 2X SDS/5% β-mercaptoethanol. Samples were immunoblotted.
The in vitro LPS-transport experiments in FIGS. 9B, 9C, and 17 were set-up as described in (Okuda et al. Science 2012, 338, 1214-1217) with some modifications. RSO-vesicles (50 μg total protein) were diluted into 100 μL reaction buffer (10% v/v glycerol, 20 mM Tris (pH 8.0), 150 mM NaCl, 5 mM sodium-ATP, 5 mM MgCl2), and incubated on ice with novobiocin, 1-adamantyl-novobiocin, or no compound for 15 minutes (50× compound stocks in water were used for each concentration). […]
Immunoblotting was used to assess LptA*-LPS levels in each sample. […] LptA levels were assessed similarly, using rabbit anti-LptA antiserum followed by donkey anti-rabbit horseradish peroxidase conjugate (GE Amersham). […]

[9] = PMB 0.03 mg/kg (total 0.06) BID/SC
[10] = PMB 0.1 mg/kg (total 0.2) BID/SC
[11] = PMB 0.3 mg/kg (total 0.6) BID/SC

T1 sequence (P0A9V1 whole entry): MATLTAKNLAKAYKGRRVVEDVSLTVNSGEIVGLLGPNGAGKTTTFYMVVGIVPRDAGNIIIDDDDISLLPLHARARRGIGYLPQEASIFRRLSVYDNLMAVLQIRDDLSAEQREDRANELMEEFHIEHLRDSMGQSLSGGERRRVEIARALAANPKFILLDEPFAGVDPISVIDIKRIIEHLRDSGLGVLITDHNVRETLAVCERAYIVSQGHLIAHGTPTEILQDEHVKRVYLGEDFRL

CO[C@@H]1[C@@H](OC(N)=O)[C@@H](O)[C@H](Oc2ccc3c(O)c(NC(=O)c4ccc(F)c(CC=C(C)C)c4)c(=O)oc3c2C)OC1(C)C [fluorobiocin, (3R,4S,5R,6R)-6-((3-(4-fluoro-3-(3-methylbut-2-en-1-yl)benzamido)-4-hydroxy-8-methyl-2-oxo-2H-chromen-7-yl)oxy)-5-hydroxy-3-methoxy-2,2-dimethyltetrahydro-2H-pyran-4-yl carbamate]
Kd ([1]; 19F NMR linewidth vs. log[LptB], nonlinear fit, [Fbn]=50 μM, 5 mM ADP): 18 µM
affinity for LptB in words ([1]; Solution NMR binding experiments): low micromolar binder

polymyxin B
change in log10 CFU/g of thigh from 2 hour control [2, 9]: 3.91 log10 CFU/g of thigh
change in log10 CFU/g of thigh from 26 hour controls [2, 9]: −0.18 log10 CFU/g of thigh
change in log10 CFU/g of thigh from 2 hour control [2, 10]: 3.95 log10 CFU/g of thigh
change in log10 CFU/g of thigh from 26 hour controls [2, 10]: −0.13 log10 CFU/g of thigh
change in log10 CFU/g of thigh from 2 hour control [2, 11]: 3.38 log10 CFU/g of thigh
change in log10 CFU/g of thigh from 26 hour controls [2, 11]: −0.70 log10 CFU/g of thigh
change in log10 CFU/g of thigh from 2 hour control ([2]; PMB 1 mg/kg (total 2) BID/SC): 0.49 log10 CFU/g of thigh
change in log10 CFU/g of thigh from 26 hour controls ([2]; PMB 1 mg/kg (total 2) BID/SC): −3.60 log10 CFU/g of thigh
reductions in CFUs from the 26 hour infection controls ([2]; Polymyxin B as a single agent at 0.2 mg/kg): 0.70 log10 CFU/gram of thigh
reductions in CFUs from the 26 hour infection controls ([2]; Polymyxin B as a single agent at 1 mg/kg): 3.60 log10 CFU/gram of thigh
Average log10 CFU/g of thigh [2, 9]: 9.44 log10 CFU/g of thigh
Average log10 CFU/g of thigh [2, 10]: 9.49 log10 CFU/g of thigh
Average log10 CFU/g of thigh [2, 11]: 8.92 log10 CFU/g of thigh
Average log10 CFU/g of thigh ([2]; PMB 1 mg/kg (total 2) BID/SC): 6.02 log10 CFU/g of thigh
MIC [3]: 1000 ng/mL
MIC [4]: >1000 ng/mL
MIC [5]: 110 ng/mL
MIC [6]: 280 ng/mL

CO[C@@H]1[C@@H](OC(=O)c2ccc(C)[nH]2)[C@@H](O)[C@H](Oc2ccc3c(O)c(NC(=O)c4ccc(O)c(CC=C(C)C)c4)c(=O)oc3c2Cl)OC1(C)C [clorobiocin]
synergy with PMB [7]: more potent synergy with PMB than novobiocin
LPS transport in vitro [8]: highly stimulates LPS transport in vitro
